Literature values in patent publication US20040002663A1, “Method and system for use in detecting a cancerous and precancerous pathology” (priority 2002, published 2004).
Like-named read-outs stand apart in the source and are kept apart here.

Assays:
[1] = tested on: alpha-adrenergic receptors of the arteriolar and venous vasculature; details: active metabolite of midodrine
[2] = tested on: cardiac beta-adrenergic receptors
[3] = tested on: patients with orthostatic hypotension; details: for increase in one-minute standing systolic blood pressure: 10 mg at 0, 3, 6 hours
[4] = tested on: patients with orthostatic hypotension of various etiologies
[5] = tested on: patients with orthostatic hypotension; details: for increase in standing one-minute systolic pressure: at one hour
[6] = tested on: patients with orthostatic hypotension
[7] = 10 mg t.i.d., printed as a pair (systolic/diastolic)

Row | SMILES | action at alpha-adrenergic receptors [1] | stimulation of cardiac beta-adrenergic receptors [2] | increase in one-minute standing systolic blood pressure ([3]; one hour after each dose) | increase in one-minute standing systolic blood pressure ([3]; three hours after each dose) | three-minute standing pressures ([3]; 10 mg, one and 3 hours after dosing) | standing time ([3]; 10 mg, one and three hours after dosing) | standing, sitting, and supine systolic and diastolic blood pressure [4] | time the increase in standing systolic pressure was sustained in part ([5]; after 10 mg) | time the increase in standing systolic pressure was sustained in part ([5]; after 20 mg) | increase in standing one-minute systolic pressure ([5]; single 10 mg dose) | increase in standing one-minute systolic pressure ([5]; single 20 mg dose) | higher one-minute standing systolic pressure ([6]; 10 mg t.i.d., one hour after dosing, 170 patients, vs placebo) | sitting blood pressure rise [6, 7] | supine blood pressure rise [6, 7] | dizziness/light headedness/unsteadiness scores and global evaluations ([6]; after week one)
1 | COc1ccc(OC)c(C(O)CN)c1 (stereo not drawn) [Desglymidodrine] | alph1-agonist | does not stimulate |  |  |  |  |  |  |  |  |  |  |  |  | 
2 | COc1ccc(OC)c(C(O)CNC(=O)CN)c1.Cl (racemic) [midodrine, (±)−2-amino-N-(β-hydroxy-2,5-dimethoxyphenethyl)acetamide monohydrochloride] |  |  | about 15 mmHg | about 12 mmHg | increased also at one, but not 3, hours after dosing | increases in standing time seen intermittently one hour after dosing, but not at three hours | rise | two | four | about 30 mmHg | about 30 mmHg | about 20 mmHg | 20/10 | 16/8 | small improvements
